# Patent US7612064B2, “Sulfopyrroles” (Takeda Pharmaceutical Company Limited, priority 2003, dated 2009)
# Tests used:
# HeLa = assay: MTS proliferation assay; type: cell-based, human; conditions: 72 h
# Protocol: (§1) The assay is performed in 96 well tissue culture plates. […] The test compounds are added in 20 μl complete medium containing max 5% DMSO. The final compound concentrations in the assays are 10 μM, 3 μM, 1 μM and 0.3 μM, respectively. The assay plates are incubated for 72 h at culture conditions. The MTS reagent is prepared according to the manufacturer's protocol (Promega G1111). 20 μl MTS reagent are added to each well, the assay plates are quickly spun and incubated for another 3 h at culture conditions. Subsequently, the plates are shortly shacked and absorption measured with a microplate-reader at 492 nm.
# Jurkat = assay: MTS proliferation assay; type: cell-based, human; conditions: 72 h
# Protocol: as §1
# MRC5 = assay: MTS proliferation assay; type: cell-based; conditions: MRC5, 72 h
# Protocol: as §1
# [1] = Hoechst 33342 nuclear staining; type: cell-based; conditions: 24 h or 48 h incubation; for Hoechst 33342 nuclear staining score, HeLa: HeLa cells; for Hoechst 33342 nuclear staining score, Jurkat: Jurkat cells;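 on all read-outs here: apoptotic nuclei scored 0 none 1 weak under 50% of cells 2 strong over 50% of cells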
# Protocol: This assay is performed in 96 well tissue culture plates. Appropriate number of cells (adherent cells: 3-5*10^3, suspension cells: 8-10*10^3) are being seeded out in 80 μl complete medium. Adherent cells are incubated for 24 h for proper spreading out before addition of test compounds while suspension cells are immediately treated with test compounds after seeding out. The test compounds are added in 20 μl complete medium containing max 5% DMSO. […] […] The assay plates are then further incubated for 30 min and subsequently analyzed with a standard inverted fluorescence microscope.
# The readout allows the determination of the fraction of apoptotic nuclei as well as other morphological criteria specific for apoptosis as a function of the treatment. The following scores are used: 0 relating to no activity, 1 relating to weak activity comprising less than 50% of the cells and score 2 relating to strong activity comprising more than 50% of the cells.
# [2] = conc 0.1 (final concentrations in μM)
# [3] = conc 0.3 (final concentrations in μM)
# [4] = conc 1 (final concentrations in μM)
# [5] = conc 3 (final concentrations in μM)
# [6] = conc 10 (final concentrations in μM)
SMILES,IC50 (HeLa) [nM],IC50 (Jurkat) [nM],IC50 (MRC5) [nM],"Hoechst 33342 nuclear staining score, HeLa [1, 2]","Hoechst 33342 nuclear staining score, HeLa [1, 3]","Hoechst 33342 nuclear staining score, HeLa [1, 4]","Hoechst 33342 nuclear staining score, HeLa [1, 5]","Hoechst 33342 nuclear staining score, Jurkat [1, 2]","Hoechst 33342 nuclear staining score, Jurkat [1, 3]","Hoechst 33342 nuclear staining score, Jurkat [1, 4]","Hoechst 33342 nuclear staining score, Jurkat [1, 5]","Hoechst 33342 nuclear staining score, HeLa [1, 6]","Hoechst 33342 nuclear staining score, Jurkat [1, 6]"
Cc1ccc(S(=O)(=O)n2cc(CN3CCN(c4ncccn4)CC3)cc2-c2ccc3c(c2)OCO3)cc1 [Example 28],> 1000,> 1000,> 1000,0,0,0,0,0,0,0,0,–,–
CCN1CCN(CCCNCc2cc(-c3ccc4c(c3)OCO4)n(S(=O)(=O)c3ccc(C)cc3)c2)CC1 [Example 29],> 1000,> 1000,> 1000,0,0,0,0,0,0,0,0,–,–
Cc1ccc(S(=O)(=O)n2cc(CN(C)CCN(C)C)cc2-c2ccc3c(c2)OCO3)cc1 [Example 31],> 1000,> 1000,> 1000,0,0,0,0,0,0,0,0,–,–
Cc1ccc(S(=O)(=O)n2cc(CN3CCN(c4ccccn4)CC3)cc2-c2ccc3c(c2)OCO3)cc1 [Example 32],> 1000,> 1000,> 1000,0,0,0,0,0,0,0,0,–,–
CCN(CC)CCCNCc1cc(-c2ccc3c(c2)OCO3)n(S(=O)(=O)c2ccc(C)cc2)c1 [Example 34],> 1000,> 1000,> 1000,0,0,0,0,0,0,0,0,–,–
CCN1CCN(c2ccc(NCc3cc(-c4ccc5c(c4)OCO5)n(S(=O)(=O)c4ccc(C)cc4)c3)cc2)CC1 [Example 37],> 1000,> 1000,> 1000,–,0,0,0,–,0,0,0,0,0
Cc1ccc(S(=O)(=O)n2cc(CNc3ccc(N4CCOCC4)c(Cl)c3)cc2-c2ccc3c(c2)OCO3)cc1 [Example 38],> 1000,> 1000,> 1000,–,0,0,0,–,0,0,0,0,0
Cc1ccc(S(=O)(=O)n2cc(CNc3ccc(N4CCOCC4)cc3N3CCOCC3)cc2-c2ccc3c(c2)OCO3)cc1 [Example 39],> 1000,> 1000,> 1000,–,0,0,0,–,0,0,0,0,0
Cc1ccc(S(=O)(=O)n2cc(CNc3ccc(-n4ccnc4)cc3)cc2-c2ccc3c(c2)OCO3)cc1 [Example 40],> 1000,> 1000,> 1000,–,0,0,0,–,0,0,0,0,0
Cc1ccc(S(=O)(=O)n2cc(-c3cncnc3)cc2-c2ccc3c(c2)OCO3)cc1 [Example 46],> 1000,> 1000,> 1000,–,0,0,0,–,0,0,0,0,0
Cc1ccc(S(=O)(=O)n2cc(-c3ccc(C#N)cc3)cc2-c2ccc3c(c2)OCO3)cc1 [Example 48],> 1000,> 1000,> 1000,0,0,0,0,0,0,0,0,–,–
Cc1ccc(S(=O)(=O)n2cc(-c3cccnc3)cc2-c2ccc3c(c2)OCO3)cc1 [Example 49],> 1000,> 1000,> 1000,0,0,0,0,0,0,0,0,–,–
Cc1ccc(S(=O)(=O)n2cc(-c3cncc(C(N)=O)c3)cc2-c2ccc3c(c2)OCO3)cc1 [Example 50],> 1000,< 1000,> 1000,0,0,0,2 (strong activity comprising more than 50% of the cells),0,0,0,2 (strong activity comprising more than 50% of the cells),–,–
Cc1ccc(S(=O)(=O)n2cc(-c3ccc(C(N)=O)cc3)cc2-c2cccs2)cc1 [Example 52],> 1000,> 1000,> 1000,0,0,0,0,0,0,0,0,–,–
